# Compound: Cn1c(=O)n(-c2ccc(C(C)(C)C#N)cc2)c2c3cc(-c4cnc5ccccc5c4)ccc3ncc21 [Dactolisib] + Cc1nc(Nc2ncc(C(=O)Nc3c(C)cccc3Cl)s2)cc(N2CCN(CCO)CC2)n1 [Dasatinib] (partner 0.075 µM)
# Assay: relative viability (nuclei count vs DMSO), 5 days (fraction); higher = more cells survive
# Settings: first compound 0.2 µM
# Procedure, shortened: (§1)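 Medians of duplicate plates are given as relative viability. That measure is the nuclei count in treated wells divided by the count in vehicle wells. Counts were taken on 4× images of lung cancer cell lines in 1536-well plates, 5 days after pin-tool dosing the day after seeding with one drug alone or a fixed anchor-drug dose plus five library-drug doses (not always all listed) in √10 steps.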
row,Cell Line,relative viability
1,NCI-H2087,0.272
2,SK-MES-1,0.147
3,H3255,0.28
4,COR-L23,0.144
5,COR-L 105,0.202
6,LOU-NH91,0.351
7,ChaGo-K-1,0.556
8,NCI-H2170,0.289
9,NCI-H522,0.581
10,SW 900,0.174
11,NCI-H1395,0.355
12,NCI-H1792,0.206
13,NCI-H1793,0.134
14,NCI-H1563,0.458
15,NCI-H1944,0.148
16,ABC-1,0.282
17,NCI-H358,0.0694

# Compound: C1CCC(CC1)N(CCNCCC2=C3C(=C(C=C2)O)NC(=O)CO3)C(=O)CCNCCC4=CC(=C(C=C4)Cl)Cl [AZ505] + Nc1nc2[nH]cc(CCc3ccc(C(=O)N[C@@H](CCC(=O)O)C(=O)O)cc3)c2c(=O)[nH]1 [Pemetrexed] (partner 0.2 µM)
# Assay: as above
# Settings: first compound 0.08 µM
# Procedure, shortened: as §1
row,Cell Line,relative viability
1,NCI-H2342,0.711
2,NCI-H1650,0.352
3,NCI-H1993,0.63
4,SK-LU-1,0.671
5,NCI-H838,0.251
6,LCLC-103H,0.453
7,NCI-H520,0.483
8,NCI-H2126,0.58
9,EMC-BAC-2,0.412
10,NCI-H2085,0.832
11,HCC-366,0.142
12,NCI-H1666,0.81
13,NCI-H596,0.463
14,LK-2,0.215
15,NCI-H2087,0.616
16,SK-MES-1,0.81

row,Cell Line,relative viability
1,H3255,0.521
2,COR-L23,0.185
3,COR-L 105,0.979
4,LOU-NH91,0.327
5,ChaGo-K-1,0.26
6,NCI-H2170,0.254
7,HCC-44,0.683
8,NCI-H522,1
9,SW 900,0.495
10,NCI-H1395,0.919
11,NCI-H1792,0.702
12,NCI-H1793,0.863
13,NCI-H1563,0.703
14,NCI-H1944,0.748
15,NCI-H358,0.177

# Same assay, conditions: first compound 0.253 µM
row,Cell Line,relative viability
1,NCI-H2342,0.737
2,NCI-H1650,0.396
3,NCI-H1993,0.66
4,SK-LU-1,0.72
5,NCI-H838,0.253
6,LCLC-103H,0.491
7,NCI-H520,0.684
8,NCI-H2126,0.628
9,EMC-BAC-2,0.491
10,NCI-H2085,0.758
11,HCC-366,0.174
12,NCI-H1666,0.835
13,LK-2,0.254
14,NCI-H2087,0.614
15,NCI-H1648,0.743
16,SK-MES-1,0.909
17,H3255,0.556
18,COR-L23,0.204
19,COR-L 105,1.05
20,LOU-NH91,0.338
21,ChaGo-K-1,0.268
22,NCI-H2170,0.257
23,HCC-44,0.643
24,NCI-H522,1.04
25,SW 900,0.516
26,NCI-H1792,0.509
27,NCI-H1793,0.756
28,NCI-H1563,0.782
29,NCI-H1944,0.558
30,NCI-H358,0.227

# Same assay, conditions: first compound 0.8 µM
row,Cell Line,relative viability
1,NCI-H2342,0.836
2,NCI-H1650,0.351
3,NCI-H1993,0.568
4,SK-LU-1,0.684
5,NCI-H838,0.252
6,LCLC-103H,0.457
7,NCI-H520,0.777
8,NCI-H2126,0.719
9,EMC-BAC-2,0.417
10,NCI-H2085,0.78
11,HCC-366,0.179
12,NCI-H1666,0.736
13,NCI-H596,0.469
14,LK-2,0.294
15,NCI-H2087,0.691
16,NCI-H1648,0.679

row,Cell Line,relative viability
1,SK-MES-1,0.875
2,H3255,0.602
3,COR-L23,0.201
4,COR-L 105,1.06
5,LOU-NH91,0.324
6,ChaGo-K-1,0.28
7,NCI-H2170,0.238
8,HCC-44,0.659
9,NCI-H522,1.03
10,SW 900,0.494
11,NCI-H1395,0.733
12,NCI-H1792,0.609
13,NCI-H1793,0.878
14,NCI-H1563,0.875
15,NCI-H1944,0.796
16,NCI-H358,0.158

# Same assay, conditions: first compound 2.53 µM
row,Cell Line,relative viability
1,NCI-H2342,0.776
2,NCI-H1650,0.402
3,NCI-H1993,0.651
4,SK-LU-1,0.799
5,NCI-H838,0.246
6,LCLC-103H,0.519
7,NCI-H520,0.81
8,NCI-H2126,0.713
9,EMC-BAC-2,0.499
10,NCI-H2085,0.835
11,HCC-366,0.2
12,NCI-H1666,0.85
13,NCI-H596,0.564
14,LK-2,0.283
15,NCI-H2087,0.741
16,NCI-H1648,0.79

row,Cell Line,relative viability
1,SK-MES-1,0.949
2,H3255,0.571
3,COR-L23,0.185
4,COR-L 105,1.1
5,LOU-NH91,0.382
6,ChaGo-K-1,0.252
7,NCI-H2170,0.253
8,HCC-44,0.638
9,NCI-H522,1.22
10,SW 900,0.498
11,NCI-H1395,0.969
12,NCI-H1792,1.01
13,NCI-H1793,0.851
14,NCI-H1563,0.771
15,NCI-H1944,0.499
16,NCI-H358,0.179

# Same assay, conditions: first compound 8 µM
row,Cell Line,relative viability
1,NCI-H2342,0.853
2,NCI-H1650,0.446
3,NCI-H1993,0.677
4,SK-LU-1,0.757
5,NCI-H838,0.221
6,LCLC-103H,0.448
7,NCI-H520,0.875
8,NCI-H2126,0.629
9,EMC-BAC-2,0.451
10,NCI-H2085,0.965
11,HCC-366,0.16
12,NCI-H1666,0.841
13,NCI-H596,0.483
14,LK-2,0.313
15,NCI-H2087,0.696
16,NCI-H1648,0.953

row,Cell Line,relative viability
1,SK-MES-1,0.882
2,H3255,0.616
3,COR-L23,0.186
4,COR-L 105,1.14
5,LOU-NH91,0.349
6,ChaGo-K-1,0.258
7,NCI-H2170,0.264
8,HCC-44,0.673
9,NCI-H522,0.808
10,SW 900,0.511
11,NCI-H1395,1.04
12,NCI-H1792,0.901
13,NCI-H1793,1.06
14,NCI-H1563,0.769
15,NCI-H1944,0.597
16,NCI-H358,0.184

# Compound: Cn1c(=O)n(-c2ccc(C(C)(C)C#N)cc2)c2c3cc(-c4cnc5ccccc5c4)ccc3ncc21 [Dactolisib] + CC(C)C[C@H](NC(=O)[C@H](Cc1ccccc1)NC(=O)c1cnccn1)B(O)O [Bortezomib] (partner 0.002 µM)
# Assay: as above
# Settings: first compound 0.002 µM
# Procedure, shortened: as §1
row,Cell Line,relative viability
1,NCI-H727,1.03
2,NCI-H1650,0.224
3,EBC-1,0.625
4,NCI-H1703,0.321
5,NCI-H1993,0.94
6,NCI-H838,0.852
7,LCLC-103H,1.03
8,NCI-H520,0.397
9,NCI-H2126,1.19
10,EMC-BAC-2,1.11
11,NCI-H2085,1.1
12,Calu-6,1.08
13,HCC-366,0.963
14,NCI-H1666,0.859
15,NCI-H596,0.939
16,NCI-H2087,1.04
17,H3255,0.798
18,COR-L23,1.21
19,COR-L 105,0.784
20,IA-LM,0.828
21,LOU-NH91,0.526
22,ChaGo-K-1,0.977
23,HCC-44,0.932
24,NCI-H1299,1.02
25,NCI-H1792,0.872
26,NCI-H1563,0.904
27,ABC-1,0.345

# Same assay, conditions: first compound 0.006325 µM
row,Cell Line,relative viability
1,NCI-H727,0.58
2,NCI-H1650,0.213
3,EBC-1,0.523
4,NCI-H1703,0.272
5,NCI-H1993,0.689
6,SK-LU-1,1.05
7,NCI-H838,0.725
8,LCLC-103H,1.14
9,NCI-H520,0.715
10,NCI-H2126,1.16
11,EMC-BAC-2,1.06
12,NCI-H2085,0.884
13,Calu-6,1.07
14,HCC-366,1.09
15,NCI-H1666,0.756
16,NCI-H596,0.989
17,NCI-H2087,0.784
18,H3255,0.693
19,COR-L23,0.803
20,COR-L 105,0.888
21,IA-LM,0.691
22,LOU-NH91,0.502
23,ChaGo-K-1,1.07
24,HCC-44,0.84
25,NCI-H1299,1.05
26,NCI-H1792,0.948
27,NCI-H1563,0.903
28,ABC-1,0.296

# Same assay, conditions: first compound 0.02 µM
row,Cell Line,relative viability
1,NCI-H727,0.872
2,NCI-H1650,0.212
3,EBC-1,0.373
4,NCI-H1703,0.159
5,NCI-H1993,0.754
6,SK-LU-1,1.21
7,NCI-H838,0.434
8,LCLC-103H,0.964
9,NCI-H520,0.263
10,NCI-H2126,1.12
11,EMC-BAC-2,1.09
12,NCI-H2085,0.97
13,Calu-6,1.06
14,HCC-366,0.988
15,NCI-H1666,0.722
16,NCI-H596,0.908
17,NCI-H2087,0.791
18,H3255,0.766
19,COR-L23,0.765
20,COR-L 105,0.553
21,IA-LM,0.511
22,LOU-NH91,0.49
23,ChaGo-K-1,0.861
24,HCC-44,0.968
25,NCI-H1299,1.05
26,NCI-H1792,0.936
27,NCI-H1563,0.819
28,ABC-1,0.303

# Same assay, conditions: first compound 0.06325 µM
row,Cell Line,relative viability
1,NCI-H727,0.35
2,NCI-H1650,0.208
3,EBC-1,0.216
4,NCI-H1703,0.199
5,NCI-H1993,0.522
6,SK-LU-1,1.16
7,NCI-H838,0.22
8,LCLC-103H,0.743
9,NCI-H520,0.121
10,NCI-H2126,0.921
11,EMC-BAC-2,0.859
12,NCI-H2085,0.662
13,Calu-6,0.593
14,HCC-366,0.593
15,NCI-H1666,0.392
16,NCI-H596,0.769
17,NCI-H2087,0.548
18,H3255,0.664
19,COR-L23,0.327
20,COR-L 105,0.28
21,IA-LM,0.145
22,LOU-NH91,0.458
23,ChaGo-K-1,1.04
24,HCC-44,0.535
25,NCI-H1299,0.957
26,NCI-H1792,0.598
27,NCI-H1563,0.603
28,ABC-1,0.312

# Same assay, conditions: first compound 0.2 µM
row,Cell Line,relative viability
1,NCI-H727,0.267
2,NCI-H1650,0.228
3,EBC-1,0.191
4,NCI-H1703,0.213
5,NCI-H1993,0.455
6,SK-LU-1,0.457
7,NCI-H838,0.242
8,LCLC-103H,0.71
9,NCI-H520,0.134
10,NCI-H2126,0.551
11,EMC-BAC-2,0.63
12,NCI-H2085,0.376
13,Calu-6,0.387
14,HCC-366,0.481
15,NCI-H1666,0.404
16,NCI-H596,0.357
17,NCI-H2087,0.382
18,H3255,0.39
19,COR-L23,0.149
20,COR-L 105,0.274
21,IA-LM,0.0972
22,LOU-NH91,0.43
23,ChaGo-K-1,0.755
24,HCC-44,0.516
25,NCI-H1299,0.7
26,NCI-H1792,0.313
27,NCI-H1563,0.59
28,ABC-1,0.247
